Measurements reported in patent US5247119A, “Phenylacetonitrilehydroxyalkylaminoalkyl-ortho-substituted aryl compounds as immunosuppressives” (G. D. Searle & Co., priority 1992, dated 1993).

Assays:
Type in all cases: cell-based, female Balb/c mice
[1] = system: conA-stimulated T cell proliferation (spleen cells); experiment: Assay A: Suppression of Murine Mitogen-Stimulated Proliferation; details: conA 1 ug/ml, 3 days culture, MTT readout, n = 2
Description: Assay A: Suppression of Murine Mitogen-Stimulated Proliferation
It is known that lymphocyte activation can be polyclonally stimulated by plant lectins and other mitogenic substances that induce blast transformation and mitosis. The plant lectin concanavalin A (conA) preferentially induces activation and proliferation of T lymphocytes. Exposure of T cells to conA results in polyclonal T cell activation, and this response can be used to determine the in vitro index of immunomodulatory effects of test compounds on pan-T cell activation. Spleen cells were harvested aseptically from female Balb/c mice, and cells were extruded by compression in phosphate buffered saline (pH 7.0). […] The remaining cells were pelleted, resuspended in medium, filtered through a cotton plug to remove debris, and the leukocytes were then counted. […] Inhibition of conA-stimulated T cell proliferation was measured using a colorimetric indicator of cell growth and proliferation, MTT [3-(4,5-dimethylthiazol-2-yl)-2 diphenyltetrazolium bromide; 100 μl of a 1 mg/ml solution per well, SIGMA] […] Light absorbance was measured at a test wavelength of 570 nm and a reference wavelength of 650 nm using a spectrophotometer. […]

in vitro = details: spleen cell leukocytes
Protocol: (§1) Measurement of drug-induced cellular cytotoxicity was determined after 48 hours of cell culture with and without conA and with and without test compound or vehicle control. All cell preparations and assay conditions were identical to those described in Assay A. A fluorescence based assay was used to measure cell viability using the carboxyfluorescein derivative 2'-7'-biscarboxyethyl-5 (6)-carboxyfluorecein (BCECF) as a vital dye [Leeder, J. S., Dosch, H. M., Harper, P. A., Lam, P. and S. P. Spielberg, 1989. Anal. Biochem. 177, 364-372]. The membrane permeant, nonfluorescent ester derivitive, BCECF-AM (100 μl of a 2 ug/ml solution in phosphate buffered saline, pH 7.0, Molecular Probes, Eugene, OR) was added to each cell culture and incubated at 37° C. for 30 min. […] The cells were washed and concentrated on the well membrane under low vacuum, and cell associated fluorescence was measured by front surface fluorometry (485/535 nM) in the Screen Machine (Baxter) using an automated protocol. Probit analysis was used to determine viability as a percentage of relative fluorescence units (RFU) compared to control (cells and medium). The dose of test compound that induced at least 50% cellular toxicity, i.e., a 50% reduction in RFU compared to unstimulated control cells, was recorded.

[2] = system: spleen cell leukocytes (cell viability); experiment: in vitro; details: 48 h
Protocol: as §1

Structure (SMILES)	EC50 ([1]; Mus musculus, T-cell, 72 h)	CC50 at 48 h (in vitro)	EC50 [1]	CC50 [2]
COc1ccc(CCN(C)CC(O)CC(C#N)(c2ccc(OC)c(OC)c2)C(C)C)cc1OC (racemic) [Example 1-A, α-[3-[[2-(3,4-dimethoxyphenyl)ethyl]methylamino]-2-hydroxypropyl]-3,4-dimethoxy-α-(1-methylethyl)benzeneacetonitrile]	12.9 ± 5.75 µM	60 µM	–	–
COc1ccc(CCN(C)CC(O)CC(C#N)(c2ccc(OC)c(OC)c2)C(C)C)cc1OC (racemic) [Example 1-B, α-[3-[[2-(3,4-dimethoxyphenyl)ethyl]methylamino]-2-hydroxypropyl]-3,4-dimethoxy-α-(1-methylethyl)benzeneacetonitrile]	–	–	17.9 ± 8.16 µM	60 µM
